ChEMBL document CHEMBL6087465, “Design, Synthesis, and Antitumor Activity Evaluation of 2-Phenylthiazole-5-Carboxylic Acid Derivatives Targeting Transactivation Response RNA-Binding Protein 2” (J Med Chem, 2025)
Active and inactive are the calls of the source. No cut-off for these calls is given here.

Columns and labels:
[1] = AUC (0 to infinity) in Sprague-Dawley rat at 25 mg/kg,po administration by LC-MS/MS analysis; format: ADME, organism-based; conditions: in vivo
[2] = system: HCCLM3; assay: Antiproliferative activity against human HCCLM3 cells cultured as 3D cells assessed as inhibition of colony formation at 25 uM incubated for 21 days by 3D soft-agar based microscopic analysis; format: functional, cell-based; conditions: time 21.0 day
[3] = Acute toxicity in Kunming mouse assessed as body weight loss at 100 mg/kg,ip administration measured after 14 days; format: organism-based; conditions: in vivo, 336 h, time 14 day
[4] = MRT (0 to t) in Sprague-Dawley rat at 25 mg/kg,po administration by LC-MS/MS analysis; format: ADME, organism-based; conditions: in vivo
[5] = Cmax in Sprague-Dawley rat at 10 mg/kg,iv administration by LC-MS/MS analysis; format: ADME, organism-based; conditions: in vivo
[6] = Tmax in Sprague-Dawley rat at 25 mg/kg,po administration by LC-MS/MS analysis; format: ADME, organism-based; conditions: in vivo
[7] = Cmax in Sprague-Dawley rat at 25 mg/kg,po administration by LC-MS/MS analysis; format: ADME, organism-based; conditions: in vivo
[8] = system: HCCLM3; assay: Antiproliferative activity against human HCCLM3 cells assessed as downregulation of SMAD2 phosphorylation incubated for 24 hrs by Western blotting analysis; format: functional, cell-based
[9] = Acute toxicity in Kunming mouse assessed as effect on ALT level in liver at 100 mg/kg,ip administration measured after 14 days; format: organism-based; conditions: in vivo, 336 h, time 14 day
[10] = system: HCCLM3; assay: Inhibition of cell migration in human HCCLM3 cells at 10 uM incubated for 24 hrs by transwell assay; format: functional, cell-based
[11] = MRT (0 to infinity) in Sprague-Dawley rat at 10 mg/kg,iv administration by LC-MS/MS analysis; format: ADME, organism-based; conditions: in vivo
[12] = Acute toxicity in Kunming mouse assessed as effect on urea level in kidney at 100 mg/kg,ip administration measured after 14 days; format: organism-based; conditions: in vivo, 336 h, time 14 day
[13] = Acute toxicity in Kunming mouse assessed as pathological change in spleen at 100 mg/kg,ip administration measured after 14 days by hematoxylin and eosin staining based microscopic analysis; format: organism-based; conditions: in vivo, 336 h, time 14 day
[14] = system: SK-HEP1; assay: Antiproliferative activity against TARBP2-knockout human SK-HEP1 cells cultured as 3D cells assessed as inhibition of cell growth at 25 uM incubated for 72 hrs by CellTiter-Lumi assay; format: functional, cell-based
[15] = Volume of distribution at steady state in Sprague-Dawley rat at 10 mg/kg,iv administration by LC-MS/MS analysis; format: ADME, organism-based; conditions: in vivo, read-out: Vdss
[16] = system: SK-HEP1; assay: Inhibition of cell migration in TARBP2-knockout human SK-HEP1 cells at 1 to 25 uM incubated for 24 hrs by transwell assay; format: functional, cell-based; conditions: dose 1-25 µM
[17] = Acute toxicity in Kunming mouse assessed as effect on AST level in liver at 100 mg/kg,ip administration measured after 14 days; format: organism-based; conditions: in vivo, 336 h, time 14 day
[18] = system: SK-HEP1; assay: Inhibition of cell migration in human SK-HEP1 cells incubated for 24 hrs by transwell assay; format: functional, cell-based
[19] = system: SK-HEP1; assay: Antiproliferative activity against human SK-HEP1 cells cultured as 2D cells assessed as inhibition of cell growth at 10 uM incubated for 72 hrs by CCK-8 assay; format: functional, cell-based
[20] = Acute toxicity in Kunming mouse assessed as pathological change in lung at 100 mg/kg,ip administration measured after 14 days by hematoxylin and eosin staining based microscopic analysis; format: organism-based; conditions: in vivo, 336 h, time 14 day
[21] = AUC (0 to t) in Sprague-Dawley rat at 25 mg/kg,po administration by LC-MS/MS analysis; format: ADME, organism-based; conditions: in vivo
[22] = species on record: Homo sapiens; assay: Inhibition of recombinant human TRBP/recombinant human Dicer protein protein interaction at 25 uM by indirect-competition-ELISA
[23] = Acute toxicity in Kunming mouse assessed as effect on ALB level in liver at 100 mg/kg,ip administration measured after 14 days; format: organism-based; conditions: in vivo, 336 h, time 14 day
[24] = Tmax in Sprague-Dawley rat at 10 mg/kg,iv administration by LC-MS/MS analysis; format: ADME, organism-based; conditions: in vivo
[25] = system: HCCLM3; assay: Antiproliferative activity against human HCCLM3 cells cultured as 2D cells assessed as inhibition of cell growth at 10 uM incubated for 72 hrs by CCK-8 assay; format: functional, cell-based
[26] = system: HCCLM3; assay: Antiproliferative activity against human HCCLM3 cells cultured as 3D cells assessed as inhibition of cell growth at 10 uM incubated for 72 hrs by CellTiter-Lumi assay; format: functional, cell-based
[27] = Oral bioavailability in Sprague-Dawley rat at 25 mg/kg administration by LC-MS/MS analysis; format: ADME, organism-based; conditions: in vivo
[28] = Acute toxicity in Kunming mouse assessed as pathological change in kidney at 100 mg/kg,ip administration measured after 14 days by hematoxylin and eosin staining based microscopic analysis; format: organism-based; conditions: in vivo, 336 h, time 14 day
[29] = Half life in Sprague-Dawley rat at 25 mg/kg,po administration by LC-MS/MS analysis; format: ADME, organism-based; conditions: in vivo
[30] = system: SK-HEP1; assay: Antiproliferative activity against human SK-HEP1 cells cultured as 3D cells assessed as inhibition of cell growth at 10 uM incubated for 72 hrs by CellTiter-Lumi assay; format: functional, cell-based
[31] = system: HCCLM3; assay: Inhibition of cell migration in human HCCLM3 cells at 10 uM incubated for 24 hrs by wound healing assay; format: functional, cell-based
[32] = Acute toxicity in Kunming mouse assessed as effect on total bilirubin level in liver at 100 mg/kg,ip administration measured after 14 days; format: organism-based; conditions: in vivo, 336 h, time 14 day
[33] = Acute toxicity in Kunming mouse assessed as effect on creatine kinase level in heart at 100 mg/kg,ip administration measured after 14 days; format: organism-based; conditions: in vivo, 336 h, time 14 day
[34] = Acute toxicity in Kunming mouse assessed as animal death at 100 mg/kg,ip administration measured after 14 days; format: organism-based; conditions: in vivo, 336 h, time 14 day
[35] = Acute toxicity in Kunming mouse assessed as effect on lactate dehydrogenase level in heart at 100 mg/kg,ip administration measured after 14 days; format: organism-based; conditions: in vivo, 336 h, time 14 day
[36] = MRT (0 to infinity) in Sprague-Dawley rat at 25 mg/kg,po administration by LC-MS/MS analysis; format: ADME, organism-based; conditions: in vivo
[37] = Half life in Sprague-Dawley rat at 10 mg/kg,iv administration by LC-MS/MS analysis; format: ADME, organism-based; conditions: in vivo
[38] = system: SK-HEP1; assay: Antiproliferative activity against human SK-HEP1 cells cultured as 3D cells assessed as inhibition of cell growth at 25 uM incubated for 72 hrs by CellTiter-Lumi assay; format: functional, cell-based
[39] = system: HCCLM3; assay: Antiproliferative activity against human HCCLM3 cells cultured as 3D cells assessed as inhibition of cell growth at 25 uM incubated for 72 hrs by CellTiter-Lumi assay; format: functional, cell-based
[40] = Acute toxicity in Kunming mouse assessed as effect on uric acid level in kidney at 100 mg/kg,ip administration measured after 14 days; format: organism-based; conditions: in vivo, 336 h, time 14 day
[41] = AUC (0 to t) in Sprague-Dawley rat at 10 mg/kg,iv administration by LC-MS/MS analysis; format: ADME, organism-based; conditions: in vivo
[42] = Clearance in Sprague-Dawley rat at 10 mg/kg,iv administration by LC-MS/MS analysis; format: ADME, organism-based; conditions: in vivo
[43] = system: SK-HEP1; assay: Inhibition of cell migration in human SK-HEP1 cells at 10 uM incubated for 24 hrs by wound healing assay; format: functional, cell-based
[44] = system: HCCLM3; assay: Antiproliferative activity against TARBP2-knockout human HCCLM3 cells cultured as 3D cells assessed as inhibition of cell growth at 25 uM incubated for 72 hrs by CellTiter-Lumi assay; format: functional, cell-based

Structure (SMILES): CCOc1ccc(-c2nc(C)c(C(=O)O)s2)cc1
- AUC(0-inf) [1]: 3080 ng·h/mL
- Activity [2]: Active
- Activity [3]: Non-toxic
- MRT last [4]: 2.6 h
- Cmax [5]: 34900 ng/mL
- Tmax [6]: 0.3 h
- Cmax [7]: 2210 ng/mL
- Activity [8]: Dose-dependent-effect
- Activity [9]: Non-toxic
- inhibition [10]: Active
- MRT inf [11]: 0.2 h
- Activity [12]: Non-toxic
- Activity [13]: Non-toxic
- Activity [14]: inactive
- Vd [15]: 0.161 L/kg
- inhibition [16]: inactive
- Activity [17]: Non-toxic
- inhibition [18]: Dose-dependent-effect
- Activity [19]: inactive
- Activity [20]: Non-toxic
- AUC(0-t) [21]: 2670 ng·h/mL
- inhibition [22]: Active
- Activity [23]: Non-toxic
- Tmax [24]: 6 min
- Activity [25]: inactive
- Activity [26]: Active
- bioavailability [27]: 11%
- Activity [28]: Non-toxic
- half-life [29]: 2.7 h
- Activity [30]: Active
- inhibition [31]: Active
- Activity [32]: Non-toxic
- Activity [33]: Non-toxic
- Activity [34]: Non-toxic
- Activity [35]: Non-toxic
- MRT inf [36]: 3.9 h
- half-life [37]: 1.6 h
- Activity [38]: Active
- Activity [39]: Active
- Activity [40]: Non-toxic
- AUC(0-t) [41]: 9730 ng·h/mL
- clearance [42]: 17.1 mL/min/kg
- inhibition [43]: Active
- Activity [44]: inactive

Structure (SMILES): Cc1nc(-c2ccc(N3CCOCC3)cc2)sc1C(=O)O
- AUC(0-inf) [1]: 50600 ng·h/mL
- Activity [2]: Active
- Activity [3]: Non-toxic
- MRT last [4]: 3.5 h
- Cmax [5]: 45900 ng/mL
- Tmax [6]: 0.42 h
- Cmax [7]: 19800 ng/mL
- Activity [8]: Dose-dependent-effect
- Activity [9]: Non-toxic
- inhibition [10]: Active
- MRT inf [11]: 1.8 h
- Activity [12]: Non-toxic
- Activity [13]: Non-toxic
- Activity [14]: inactive
- Vd [15]: 0.496 L/kg
- inhibition [16]: inactive
- Activity [17]: Non-toxic
- inhibition [18]: Dose-dependent-effect
- Activity [19]: inactive
- Activity [20]: Non-toxic
- AUC(0-t) [21]: 50400 ng·h/mL
- inhibition [22]: Active
- Activity [23]: Non-toxic
- Tmax [24]: 4.8 min
- Activity [25]: inactive
- Activity [26]: Active
- bioavailability [27]: 53.9%
- Activity [28]: Non-toxic
- half-life [29]: 3.28 h
- Activity [30]: Active
- inhibition [31]: Active
- Activity [32]: Non-toxic
- Activity [33]: Non-toxic
- Activity [34]: Non-toxic
- Activity [35]: Non-toxic
- MRT inf [36]: 3.7 h
- half-life [37]: 3.57 h
- Activity [38]: Active
- Activity [39]: Active
- Activity [40]: Non-toxic
- AUC(0-t) [41]: 37400 ng·h/mL
- clearance [42]: 4.6 mL/min/kg
- inhibition [43]: Active
- Activity [44]: inactive
